Reference: US8470765B2, “Polypeptides and antibacterial or antiseptic use of same” (AnGes MG, Inc., priority 2009, dated 2013)
Where two headings read alike, the source gives them in different places. No end group written: not given here.

Experiments:
[1] = tested on: Enterobacter aerogenes JCM 1235; test: microbe, parasite or virus in culture; assay type: cell-based
Summary of the method: (§1)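 Broth microdilution in Mueller-Hinton broth, about 10^5 CFU/mL final inoculum from log-phase cultures adjusted to McFarland 0.5. Incubated at 37° C for 16–24 h. MIC is the lowest concentration visibly inhibiting growth, from two or more independent experiments.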

[2] = tested on: Escherichia coli ATCC 25922; test: microbe, parasite or virus in culture; assay type: cell-based
Summary of the method: as §1

[3] = tested on: Klebsiella pneumoniae JCM 1662; test: microbe, parasite or virus in culture; assay type: cell-based
Summary of the method: as §1

[4] = tested on: Pseudomonas aeruginosa ATCC 27853; test: microbe, parasite or virus in culture; assay type: cell-based
Summary of the method: as §1

[5] = tested on: Staphylococcus aureus ATCC29213; test: microbe, parasite or virus in culture; assay type: cell-based
Summary of the method: as §1

[6] = tested on: Staphylococcus epidermidis JCM 2414; test: microbe, parasite or virus in culture; assay type: cell-based
Summary of the method: as §1

[7] = tested on: Enterobacter cloacae JCM 1232; assay type: cell-based
Protocol: Bacteria (Escherichia coli ATCC 25922, Pseudomonas aeruginosa ATCC 27853, Staphylococcus aureus ATCC29213, Klebsiella pneumoniae JCM 1662, Enterobacter cloacae JCM 1232, Enterobacter aerogenes JCM 1235 and Staphylococcus epidermidis JCM 2414) were inoculated to Mueller-Hinton broth: MHB or LB medium, and cultured at a temperature and period suited for each strain. From the thus obtained colonies, each strain was inoculated to a fresh liquid medium and cultured for 16 to 20 hours. Then an aliquot having a volume (10 to 50 appropriate to each strain was inoculated to a fresh liquid medium and cultured for 4 to 6 hours, followed by the measurement of the absorbance at 600 nm. After comparing the turbidity with McFarland #0.5, the resultant was diluted with a medium. Each strain was added to about 10^5 CFU/mL (final concentration). Each of the peptide solutions to be tested was diluted with MHB to obtain a solution of 128 μg/mL. […] As controls, tobramycin (TOB: aminoglucoside antibiotic), oxacillin (OX:β-lactam antibiotic), meropenem (MEPM: carbapenem antibiotic) and ciprofloxacin (new quinolone antibiotic) were used. […] To a 96-well microtiter plate, 0.1 mL of the inoculation solution and 0.1 mL of the peptide- or positive control-containing medium having the respective concentration were added, and cultured at 37° C. for 16 to 24 hours (or a time period suited for the growth of the respective strain). The well not containing the sample was used as a negative control. After the culturing, the growth was visually observed, and the minimum concentration at which the growth was inhibited was defined as the minimum growth inhibition concentration (MIC). The medium used in this test for bacteria was Mueller-Hinton broth. Independent experiments were carried out twice or more for each strain.

[8] = tested on: Escherichia coli ATCC 25922; test: ATP Assay (viability at 3 hours), Table 6; assay type: cell-based; conditions: 3 h, 5 μg/mL
Summary of the method: (§2)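 Log-phase bacteria at about 10^5 CFU/mL final in Mueller-Hinton broth were exposed 3 h at 37 °C to peptide (solution prepared at 10 μg/mL before 1:1 mixing with inoculum). ATP (BacTiter-Glo luminescence) relative to untreated wells defined viability; two independent experiments.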

[9] = tested on: Pseudomonas aeruginosa ATCC 27853; test: ATP Assay (viability at 3 hours), Table 6; assay type: cell-based; conditions: 3 h, 5 μg/mL
Summary of the method: as §2

[10] = tested on: Staphylococcus aureus ATCC29213; test: ATP Assay (viability at 3 hours), Table 6; assay type: cell-based; conditions: 3 h, 5 μg/mL
Summary of the method: as §2

[11] = tested on: Micrococcus luteus NBRC13867
[12] = tested on: Salmonella typhimurium JCM1652
[13] = tested on: Streptococcus pyogenes JCM5674
[14] = tested on: Acinetobacter baumanni JCM6841; conditions: JCM6841
[15] = tested on: Bacteroides fragilis JCM 11019; conditions: JCM 11019
[16] = tested on: Fusobacterium nucleatum JCM 11025; conditions: JCM 11025
[17] = tested on: Trichophyton rubrum NBRC9185
[18] = tested on: Cryptococcus neoformans IFM 46660
[19] = tested on: Rhizopus oryzae NBRC 31005
[20] = Table 4, two tests, first/second value where not identical

Row | Substance | MIC Enterobacter aerogenes ([1]; JCM 1235) [µg/mL] | MIC Escherichia coli [2, 20] | MIC Klebsiella pneumoniae ([3]; JCM 1662) [µg/mL] | MIC Pseudomonas aeruginosa [4, 20] | MIC Staphylococcus epidermidis [6, 20] | MIC Enterobacter cloacae [7, 20] | Escherichia coli ATP (viability, relative value to negative control) [8] | Pseudomonas aeruginosa ATP (viability, relative value to negative control) [9] | Staphylococcus aureus ATP (viability, relative value to negative control) [10] | MIC Micrococcus luteus [11] [µg/mL] | MIC Salmonella Typhimurium ([12]; JCM1652) [µg/mL] | MIC Streptococcus pyogenes [13] [µg/mL] | MIC Acinetobacter baumanni [14] [µg/mL] | MIC Bacteroides fragilis [15] [µg/mL] | MIC Fusobacterium nucleatum [16] [µg/mL] | MIC Trichophyton rubrum [17, 20] | MIC Cryptococcus neoformans ([18]; IFM 46660) [µg/mL] | MIC Rhizopus oryzae ([19]; NBRC 31005) [µg/mL] | MIC Pseudomonas aeruginosa ([4]; ATCC 27853) [µg/mL] | MIC Staphylococcus aureus ([5]; ATCC29213) [µg/mL] | other results
1 | RLKRMRKRLKRKLRLW-NH2 [SRP-17] | 128 | 16/32 | 32 | 32/64 | 4/8 | 128< mg/mL | 0.4 | 1.0 | 0.3 | 1 | 16 | 128 | 128 | > 128 | > 128 | 64/32 | 2 | 8 | – | – | MIC Staphylococcus aureus [5, 20]: 16/32
2 | RLKRMRKRLKRKLRLWHRKRYK-NH2 [SRP-8] | 64 | 16/32 | 32 | – | 8/16 | 128< mg/mL | 1.7 | 0.9 | 0.4 | 2 | 64 | 64 | 128 | > 128 | > 128 | – | – | 8 | 16 | 16 | MIC Trichophyton rubrum ([17]; NBRC9185): 128 µg/mL; MIC Cryptococcus neoformans [18, 20]: 1/2
3 | KLIFLRELRRLRKRLKRKLR-NH2 [SRP-16] | – | 16/32 | 64 | – | 8/16 | – | 0.9 | 1.0 | 0.4 | 2 | 8 | 32 | 128 | 32 | 128 | 64/32 | 2 | – | 16 | 16 | MIC Enterobacter aerogenes [1, 20]: 16/32; MIC Enterobacter cloacae ([7]; JCM 1232): 64 µg/mL; MIC Rhizopus oryzae [19, 20]: 8/16
4 | IFLHRLKRMRKRLKRKLRLW-OH [SRP-7] | – | – | – | 8/16 | – | 16/128 | 1.6 | 1.0 | 0.2 | 2 | 4 | 32 | 128 | 128 | 4 | 64/32 | 2 | – | – | 32 | MIC Enterobacter aerogenes [1, 20]: 16/64; MIC Escherichia coli ([2]; ATCC 25922): 32 µg/mL; MIC Klebsiella pneumoniae [3, 20]: 16/64; MIC Staphylococcus epidermidis ([6]; JCM 2414): 8 µg/mL; MIC Rhizopus oryzae [19, 20]: 8/16
5 | GRLKRMGERLKRKIQKWIRW-NH2 [SRP-15] | 16 | – | 16 | – | – | 16/32 | 0.5 | 1.6 | 0.3 | 4 | – | 16 | 32 | 16 | 4 | – | 2 | 16 | 16 | 16 | MIC Escherichia coli ([2]; ATCC 25922): 16 µg/mL; MIC Staphylococcus epidermidis ([6]; JCM 2414): 8 µg/mL; MIC Salmonella Typhimurium [12, 20]: 8/4; MIC Trichophyton rubrum ([17]; NBRC9185): 64 µg/mL
